Measured values taken from PubChem BioAssay (NCI).
“And” between values parts separate entries of the source, which are not always exact repeats. Equal entries are not always repeated.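 Protocol summary: plate cells (96-well), add compound at 5 concentrations, incubate 48 h, interpolate endpoints linearly. At the GI50, growth is halved. TGI marks complete inhibition of growth.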

What was measured:
Test in all cases: NCI-60 cell line screen, 48 h
CCRF-CEM leukemia = system: CCRF-CEM leukemia
SK-MEL-2 melanoma = system: SK-MEL-2 melanoma
786-0 renal = system: 786-0 renal
MOLT-4 leukemia = system: MOLT-4 leukemia
MDA-MB-435 = system: MDA-MB-435
NCI-H460 lung = system: NCI-H460 lung
U251 CNS = system: U251 CNS
SK-OV-3 ovarian = system: SK-OV-3 ovarian
SN12C renal = system: SN12C renal
M14 melanoma = system: M14 melanoma
LOX IMVI melanoma = system: LOX IMVI melanoma
ACHN renal = system: ACHN renal
NCI-H522 lung = system: NCI-H522 lung
T-47D breast = system: T-47D breast
HCT-116 colon = system: HCT-116 colon
EKVX NSCLC = system: EKVX NSCLC
HT29 colon = system: HT29 colon
HCT-15 colon = system: HCT-15 colon
SK-MEL-5 melanoma = system: SK-MEL-5 melanoma
SR leukemia = system: SR leukemia
A549 NSCLC = system: A549 NSCLC
SNB-75 CNS = system: SNB-75 CNS
HL-60(TB) leukemia = system: HL-60(TB) leukemia
UACC-62 melanoma = system: UACC-62 melanoma
UACC-257 melanoma = system: UACC-257 melanoma
SK-MEL-28 melanoma = system: SK-MEL-28 melanoma
MCF7 breast = system: MCF7 breast

## CC(C)c1cc(C(=O)N2Cc3ccc(CN4CCN(C)CC4)cc3C2)c(O)cc1O
CCRF-CEM leukemia
  TGI: > 100000 nM and 30200 nM
SK-MEL-2 melanoma
  GI50: 736 nM and 710 nM
  TGI: 4780 nM and 20100 nM
786-0 renal
  GI50: 1930 nM and 640 nM
  TGI: 30500 nM and 21000 nM
MOLT-4 leukemia
  GI50: 47.3 nM and 177 nM
  TGI: > 66400 nM and 20700 nM
MDA-MB-435
  GI50: 51.4 nM and 137 nM
  TGI: 21100 nM and 13400 nM
NCI-H460 lung
  GI50: 31.1 nM and 53.4 nM
  TGI: 16200 nM and 11600 nM
U251 CNS
  GI50: 86.3 nM and 320 nM
  TGI: > 50500 nM and 19600 nM
SK-OV-3 ovarian
  GI50: 31.5 nM and 64.4 nM
  TGI: 54000 nM and 18800 nM
SN12C renal
  GI50: 106 nM and 498 nM
  TGI: > 100000 nM
M14 melanoma
  GI50: 65.9 nM and 334 nM
  TGI: 15600 nM and 14600 nM
LOX IMVI melanoma
  GI50: 55 nM and 177 nM
  TGI: 369 nM and 2520 nM
ACHN renal
  GI50: 66.1 nM and 210 nM
  TGI: > 100000 nM
NCI-H522 lung
  GI50: 45.4 nM and 291 nM
  TGI: 3200 nM and 18000 nM
T-47D breast
  GI50: 63.1 nM and 342 nM
  TGI: 31200 nM and 34800 nM
HCT-116 colon
  GI50: 39.4 nM and 81.8 nM
  TGI: 15300 nM and 13400 nM
EKVX NSCLC
  GI50: 983 nM and 1270 nM
  TGI: > 100000 nM
HT29 colon
  GI50: 42.8 nM and 58 nM
  TGI: > 32800 nM and 12600 nM
HCT-15 colon
  GI50: 62.2 nM and 145 nM
  TGI: > 100000 nM and 21800 nM
SK-MEL-5 melanoma
  GI50: 163 nM and 459 nM
  TGI: 17300 nM and 16500 nM
SR leukemia
  GI50: 37.1 nM and 59.3 nM
  TGI: 84000 nM and 17100 nM
A549 NSCLC
  GI50: 44 nM and 238 nM
  TGI: > 46000 nM and 37100 nM
SNB-75 CNS
  GI50: 1270 nM and 2190 nM
  TGI: 46700 nM and > 57300 nM
HL-60(TB) leukemia
  GI50: 47.9 nM and 212 nM
  TGI: 16200 nM and 11600 nM
UACC-62 melanoma
  GI50: 69.7 nM and 286 nM
  TGI: 15400 nM and 3910 nM
UACC-257 melanoma
  GI50: 95.4 nM and 484 nM
  TGI: 4460 nM and 15200 nM
SK-MEL-28 melanoma
  GI50: 98.3 nM and 536 nM
  TGI: 18300 nM and 15800 nM
MCF7 breast
  GI50: 25.4 nM and 48.4 nM
  TGI: 24100 nM and 30500 nM
